Results published in article PMC4501687, “Design of a Selective Substrate and Activity Based Probe for Human Neutrophil Serine Protease 4” (PLoS ONE, 2015).
Values joined by “and” are separate entries in the source; they are usually repeats but may differ in a detail not shown here. Equal entries are not always repeated. Where two headings read alike, the source gives them in different places. Values belong to the substance of their own block, whether it stands above or below them. * marks the point of attachment. ACC = NC(=O)Cc1cc(=O)oc2cc(N*)ccc12; CH2Cl = ClC*

Key:
[1] = target: T1, NE (Homo sapiens, UniProt P08246); test: Fluorogenic substrate hydrolysis kinetics with NE; format: biochemical
T1 construct: purchased Biocentrum, Krakow, Poland
T1 sequence (P08246 30-267): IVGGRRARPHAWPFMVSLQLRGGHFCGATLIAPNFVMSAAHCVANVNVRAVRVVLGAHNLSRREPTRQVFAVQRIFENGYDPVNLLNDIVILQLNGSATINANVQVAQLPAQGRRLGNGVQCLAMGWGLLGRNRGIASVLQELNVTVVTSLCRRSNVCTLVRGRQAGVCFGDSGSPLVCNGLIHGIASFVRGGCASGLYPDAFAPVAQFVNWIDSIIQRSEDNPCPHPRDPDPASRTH
Description: (§1) Kinetic parameters of selected substrates were determined in 50 mM Hepes, 0.1 M NaCl, 0.1%TRITON-X100, pH 7.45 assay buffer on 96 wells Corning plates. Measurements were performed for a minimum of 20 minutes. The excitation wavelength was 355 nm, and the emission wavelength was 460 nm, with a cutoff of 455 nm. Human NE and CatG were purchased from Biocentrum, Krakow, Poland and PR3 from Athens Research Technology, Athens, Georgia, USA. Recombinant human NSP4 was expressed and purified as previously described.
(§2) In addition to NSP4, neutrophils contain three other structurally-related serine proteases NE, PR3 and CatG [1] that are also stored in azurophilic granules. To estimate the degree of eventual cross reactivity of the optimal substrate with these three serine proteases, we measured kinetic parameters for each enzyme on PK421. […] In the case of CatG we were unable to saturate the enzyme and therefore could not calculate the individual values of kcat and Km.

[2] = target: T2, NSP4 (Homo sapiens, UniProt Q6UWY2); test: Fluorogenic substrate hydrolysis kinetics with NSP4; format: biochemical
T2 construct: made in house
T2 sequence (Q6UWY2 32-283): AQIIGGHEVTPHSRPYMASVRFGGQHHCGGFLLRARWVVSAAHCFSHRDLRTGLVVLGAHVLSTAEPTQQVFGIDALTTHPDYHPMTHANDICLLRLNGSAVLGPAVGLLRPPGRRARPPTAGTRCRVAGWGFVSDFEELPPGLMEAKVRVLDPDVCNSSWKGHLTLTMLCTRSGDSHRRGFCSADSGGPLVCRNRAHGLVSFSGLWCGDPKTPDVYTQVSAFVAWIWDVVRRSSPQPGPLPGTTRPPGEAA
Description: as §1
To 20μl of substrates dissolved in assay buffer at known concentration ranges (PK421 and PK431–320–1μM, PK417 and PK418–460–27μM), 80μl of NSP4 (2.9nM), preincubated for 20 minutes at 37°C in buffer, was added. Km, kcat and kcat/Km parameters/constants were calculated using GraphPad Prism and Excel software. Each experiment was repeated three times, and the results are presented as an average +/- S.D.

[3] = target: T2, NSP4; test: SDS-PAGE / streptavidin blot labeling of purified NSP4 by probe; format: binding; conditions: 100 nM NSP4 preincubated with inhibitor 30 min 37°C, then PK401 up to 2000 nM for 20 min
Description: 100nM of NSP4 was incubated with competing inhibitor—Ac-IVPR-CMK for 30 minutes at 37°C and then treated with different concentrations of probe—PK401 (2000nM and 1000nM) for 20 minutes at 37°C. Separately, 100nM of NSP4 was incubated with five different concentrations of probe- 2000nM, 1000nM, 100nM, 10nM, and 1 nM for 20 minutes in 37°C. As a control 100nM PK401 was incubated with assay buffer.
Samples were denatured and run in 4–12% SDS PAGE following transfer to nitrocellulose membrane. The membrane was blocked with 1.5% BSA in TBST overnight at 4°C and treated with IRDye800CW Streptavidin (dilution 1:10000 with 1.5% BSA in TBST) for 45 minutes. Then enzyme was visualized using a Li-cor fluorescence imager and Odyssey Molecular Modeling Software.
SDS-page and Western Blot […]
A standard SDS broad spectrum marker (Biorad) was used (Fig. 4A, lane 1). […]
minutes in 37° C (Fig. 4, lanes 4, 5, 6, 7, 8). […] Then enzyme was visualized using a Li-cor fluorescence imager and Odyssey Molecular Modeling Software. […]
The membrane was blocked with 1.5% BSA in TBST overnight at 4° C and treated with IRDye800CW Streptavidin (dilution 1:10000 with 1,5% BSA in TBST) for 45 minutes. Then PK401 was visualized using a Li-cor fluorescence imager and Odyssey Molecular Modeling Software.

[4] = target: T3, PR3 (Homo sapiens, UniProt P24158); test: Fluorogenic substrate hydrolysis kinetics with PR3; format: biochemical
T3 construct: purchased Athens Research Technology, Athens, Georgia, USA
T3 sequence (P24158 28-256): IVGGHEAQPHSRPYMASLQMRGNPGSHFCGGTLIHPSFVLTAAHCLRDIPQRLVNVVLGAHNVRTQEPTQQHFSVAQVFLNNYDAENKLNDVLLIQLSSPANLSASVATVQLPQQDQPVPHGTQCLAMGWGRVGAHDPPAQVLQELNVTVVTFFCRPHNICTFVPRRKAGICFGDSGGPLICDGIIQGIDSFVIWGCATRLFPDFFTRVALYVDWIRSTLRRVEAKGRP
Description: as §1, §2

[5] = Table 1, NSP4 2.9 nM preincubated 20 min 37°C, 50 mM Hepes, 0.1 M NaCl, 0.1% TRITON-X100, pH 7.45, ACC fluorescence ex 355/em 460 nm, average ± S.D., minimum of 2 experiments, SD, read-out: Km
[6] = Table 1, NSP4 2.9 nM, Hepes buffer pH 7.45, 37°C, ACC fluorescence, average ± S.D., minimum of 2 experiments, SD
[7] = Table 1 and text, NSP4 2.9 nM, Hepes buffer pH 7.45, 37°C, ACC fluorescence, average ± S.D., minimum of 2 experiments
[8] = Table 2, hydrolysis by NSP4, Hepes buffer pH 7.45

Km ([1]; Table 3, assay substrate for NE, read-out: Km of the substrate used for analysis): 0.28 ± 0.08 µM
Substance: Ac-Nle(OBzl)-Met(O)2-Oic-Abu-ACC [assay substrate for NE, reference compound]

Substance: Ac-RVPR-{ACC} (SMILES CC(=O)N[C@@H](CCCNC(=N)N)C(=O)N[C@H](C(=O)N1CCC[C@H]1C(=O)N[C@@H](CCCNC(=N)N)C(=O)Nc1ccc2c(CC(N)=O)cc(=O)oc2c1)C(C)C) [PK418, fluorogenic NSP4 substrate of natural amino acids]
Km [2, 5]: 67 ± 10 µM
kcat [2, 6]: 0.06 ± 0.003 x 10^−3 s^-1
kcat/Km [2, 7]: 960 ± 190 M⁻¹ s⁻¹

Substance: Ac-hCha-Phe(guan)-Pro-Arg-ACC [PK431, fluorogenic NSP4 substrate with unnatural amino acids]
Km [2, 5]: 53 ± 0.8 µM
kcat [2, 6]: 1.2 ± 0.017 s⁻¹
kcat/Km [2, 7]: 23000 ± 11 M⁻¹ s⁻¹
Km ([2]; Table 3, assay substrate for NSP4, read-out: Km of the substrate used for analysis): 53 ± 0.8 µM

Substance: Ac-IVPR-{ACC} (SMILES CC[C@H](C)[C@H](NC(C)=O)C(=O)N[C@H](C(=O)N1CCC[C@H]1C(=O)N[C@@H](CCCNC(=N)N)C(=O)Nc1ccc2c(CC(N)=O)cc(=O)oc2c1)C(C)C) [PK417, fluorogenic NSP4 substrate of natural amino acids]
Km [2, 5]: 96 ± 16 µM
kcat [2, 6]: 0.2 ± 0.02 s⁻¹
kcat/Km [2, 7]: 2100 M⁻¹ s⁻¹ and 2100 ± 300 M⁻¹ s⁻¹

Substance: Ac-IVPR-CH2Cl [reference compound]
Effect of NSP4 active site blocking on PK401 binding [3]: prevented binding

Km ([4]; Table 3, assay substrate for PR3, read-out: Km of the substrate used for analysis): 13.7 ± 0.67 µM
Substance: Ac-Glu(OBzl)-Lys(Ac)-hPro(OBzl)-Abu-ACC [assay substrate for PR3, reference compound]

Substance: Ac-hCha-Phe(guan)-Oic-Arg-ACC [PK421, optimal fluorogenic NSP4 substrate with unnatural amino acids]
Increase of kcat/Km relative to PK431 (Pro to Oic at P2) ([2]; NSP4, PK421 versus PK431): 39%
Fold more efficiently cleaved by NSP4 than PK417 (kcat/Km ratio) ([2]; NSP4, versus best substrate of only natural amino acids): around 15 times
Km [2, 5]: 61 ± 9.1 µM
kcat [2, 6]: 2.0 ± 0.54 s⁻¹
kcat/Km [2, 7]: 32000 M⁻¹ s⁻¹ and 32000.0 ± 4500 M⁻¹ s⁻¹
kcat [2, 8]: 2.0 ± 0.54 s⁻¹
kcat/Km [2, 8]: 32000 ± 4500 M⁻¹ s⁻¹
Km ([2]; Table 2, hydrolysis by NSP4, Hepes buffer pH 7.45, read-out: Km): 61 ± 9.1 µM
kcat/Km ([1]; Table 2, hydrolysis by NE, NA = no activity detected): Lack of measurable activity
kcat/Km ([4]; Table 2, hydrolysis by PR3, NA = no activity detected): Lack of measurable activity
